From PubChem BioAssay (NCI)
Where “and” joins values, the source holds several entries; their conditions need not be identical. Equal values may be shown once.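 Dose response: 5 concentrations. Exposure: 48 h. Format: 96-well plates. Endpoint: linear interpolation; highest concentration if not reached. GI50 = concentration required for 50% inhibition of growth. The concentration for full growth arrest is given as TGI.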

Key:
Assay in all cases: DTP human tumour cell line panel, 48 h
[1] = tested on: SR leukemia
[2] = tested on: HT29 colon
[3] = tested on: SW-620 colon
[4] = tested on: UACC-257 melanoma
[5] = tested on: 786-0 renal
[6] = tested on: UACC-62 melanoma
[7] = tested on: SK-MEL-28 melanoma
[8] = tested on: OVCAR-8 ovarian
[9] = tested on: EKVX NSCLC
[10] = tested on: MCF7 breast

Compound	GI50 [1]	TGI [1]	GI50 [2]	TGI [2]	GI50 [3]	TGI [3]	GI50 [4]	TGI [4]	GI50 [5]	TGI [5]	GI50 [6]	TGI [6]	GI50 [7]	TGI [7]	GI50 [8]	TGI [8]	GI50 [9]	TGI [9]	GI50 [10]	TGI [10]
CC(C)(C)[Si](C)(C)OC1[C@@H](O[Si](C)(C)C(C)(C)C)[C@@H](CNC(=O)NC(=O)NC(=O)CCl)O[C@H]1n1cnc2c(NC(=O)Nc3ccccc3)ncnc21 (stereo partly specified)	0.226 µM	0.81 µM	1.43 µM	3.67 µM	3.52 µM	11.6 µM	5.64 µM	13.2 µM	1.3 µM	4.76 µM	8.41 µM	18.6 µM	8.78 µM	17.8 µM	0.955 µM	3.77 µM	1.69 µM	6.54 µM	3.76 µM	11.9 µM
COC(=O)[C@H](Cc1ccccc1)NNC(=O)c1csc([C@@H](C[C@H](C(C)C)N(C)C(=O)[C@@H](NC(=O)[C@H]2CCCCN2C)C2CC2)OC(C)=O)n1	0.00139 µM and 0.0025 µM	25 µM and > 100 µM	–	25 µM and > 100 µM	–	25 µM and > 100 µM	–	> 100 µM	–	25 µM and > 100 µM	0.0176 µM and 0.0025 µM	25 µM	–	25 µM and > 100 µM	–	25 µM and > 100 µM	–	> 100 µM	0.00392 µM and 0.0025 µM and 0.0244 µM	25 µM and > 100 µM
CN(C)c1ccc(/C=C(\C#N)c2ccccc2)cc1	0.0866 µM and 0.308 µM and 0.255 µM	19 µM and 37.6 µM	0.33 µM and 0.352 µM and 0.347 µM	10.9 µM and 71.3 µM	0.28 µM and 0.447 µM and 0.444 µM	> 100 µM	44.7 µM and 57.4 µM	> 100 µM	0.56 µM and 0.763 µM and 0.437 µM	> 100 µM and 58.6 µM and 30.2 µM	0.312 µM and 0.36 µM and 0.52 µM	> 100 µM	–	> 100 µM	0.61 µM and 2.52 µM and 2.65 µM	> 100 µM	0.499 µM and 1.43 µM and 1.78 µM	> 100 µM	0.261 µM and 0.276 µM and 0.281 µM	> 100 µM
C[C@@H]1CC[C@H]2[C@@H](C)C(OC/C=C/COC3O[C@@H]4O[C@@]5(C)CC[C@H]6[C@H](C)CC[C@@H]([C@H]3C)[C@@]46OO5)O[C@@H]3O[C@@]4(C)CC[C@@H]1[C@]32OO4 (stereo partly specified)	< 0.01 µM	3.85 µM	< 0.01 µM	> 100 µM	< 0.01 µM	> 100 µM	0.0401 µM	48 µM	0.0168 µM	18.6 µM	0.0363 µM	> 100 µM	1.32 µM	> 100 µM	< 0.01 µM	> 38 µM	16 µM	> 100 µM	< 0.01 µM	20.1 µM
CCOC(=O)C1=C(C)NC(C)=C(C(=O)OCCNC(=O)c2ccc(N=[N+]=[N-])cc2)C1c1ccccc1C(F)(F)F (stereo unspecified)	–	21.5 µM	–	21.5 µM	–	21.5 µM	–	21.5 µM	–	21.5 µM	–	21.5 µM	–	21.5 µM	–	21.5 µM	–	21.5 µM	–	12.2 µM
CC1NC(C(=O)O)Cc2cc(O)c(O)cc21 (stereo unspecified)	–	> 100 µM	–	> 100 µM	–	> 100 µM	–	> 100 µM	–	> 100 µM	–	> 100 µM	–	> 100 µM	–	> 100 µM	–	> 100 µM	–	> 100 µM
COc1cc(-c2cc(-c3cccs3)c(C#N)c(N3CCOCC3)n2)cc(OC)c1OC	1.93 µM	8.11 µM	3.16 µM	> 100 µM	1.95 µM	4.62 µM	3.22 µM	9.9 µM	1.82 µM	7.94 µM	7.57 µM	> 100 µM	3.83 µM	97.2 µM	> 30.4 µM	> 100 µM	24.2 µM	> 100 µM	6.68 µM	> 100 µM
CC(C)n1nc(C#Cc2cccc(O)c2)c2c(N)ncnc21	1.17 µM and 0.573 µM	23.4 µM and 11.4 µM	2.04 µM and 1.74 µM	50 µM and 19.4 µM	2.08 µM and 1.72 µM	50 µM and 31.9 µM	1.22 µM and 1.63 µM	6.17 µM and 4.95 µM	4.7 µM and 3.37 µM	15.3 µM and 11.7 µM	0.82 µM and 0.346 µM	2.59 µM and 1.58 µM	0.657 µM and 0.304 µM	2.73 µM and 2.36 µM	1.99 µM and 2.41 µM	30.1 µM and 16.1 µM	9.41 µM and 7.49 µM	29 µM and 25.7 µM	1.62 µM and 1.51 µM	50 µM and 11.9 µM
COc1ccc(N=N/C(=N\NC(=O)c2cc(Br)ccc2O)c2ccc(N(CCC#N)CCC#N)cc2OC)cc1	62.8 µg/mL	> 150 µg/mL	40.9 µg/mL	118 µg/mL	> 150 µg/mL	> 150 µg/mL	> 150 µg/mL	> 150 µg/mL	64.6 µg/mL	> 150 µg/mL	94.2 µg/mL	> 150 µg/mL	> 150 µg/mL	> 150 µg/mL	47.5 µg/mL	> 150 µg/mL	> 150 µg/mL	> 150 µg/mL	58.7 µg/mL	> 150 µg/mL
Cc1ccc(/C=C(/C#N)n2nnc3ncccc32)cc1	0.765 µM	26.8 µM	2.08 µM	11.5 µM	1.2 µM	12 µM	4.24 µM	22.2 µM	2.99 µM	16.4 µM	3.2 µM	15.8 µM	2.17 µM	31.3 µM	3.16 µM	> 100 µM	2.88 µM	26.9 µM	2.37 µM	18.1 µM
CC(=O)NC(CS)C(=O)O (stereo unspecified)	> 100 µM	> 100 µM	> 100 µM	> 100 µM and 86700 µM	> 100 µM	> 100 µM	> 100 µM	> 100 µM	> 100 µM	> 100 µM and 58100 µM	> 100 µM	> 100 µM	> 100 µM	> 100 µM	> 100 µM	> 100 µM and 88800 µM	> 100 µM	> 100 µM and 87600 µM	> 100 µM	> 100 µM and 71300 µM
O=C(Nc1ccc(Oc2ccc(NC(=O)Nc3ccccc3Cl)cc2)cc1)Nc1ccccc1Cl	0.453 µM	13.3 µM	> 21.4 µM	> 100 µM	10.6 µM	> 100 µM	–	> 28.2 µM	22.6 µM	> 69.2 µM	7.42 µM	> 62 µM	3.54 µM	> 100 µM	6.83 µM	23.6 µM	16.4 µM	> 100 µM	8.54 µM	> 100 µM
CCCCCCCCCCCCNC(=O)N[C@H](C(=O)N[C@H]1/C=C/CCNC(=O)/C=C/[C@H](C)NC1=O)C(C)C	0.0294 µM	0.958 µM	0.0216 µM	0.331 µM	0.0504 µM	1.34 µM	0.269 µM	1.85 µM	0.276 µM	5.39 µM	0.0447 µM	0.168 µM	0.208 µM	0.708 µM	0.463 µM	4.19 µM	0.477 µM	12.6 µM	0.0577 µM	15.6 µM
COc1cc(N2CCN(C(C)C)CC2)ccc1Nc1nc(Nc2ccc(F)cc2C(=O)NCC(O)CO)c2cc[nH]c2n1 (stereo unspecified)	1.13 µM	> 14 µM	1.25 µM	> 25 µM	2.05 µM	> 25 µM	2.87 µM	> 25 µM	> 23.3 µM	> 25 µM	9.87 µM	> 25 µM	> 25 µM	> 25 µM	16.3 µM	> 25 µM	> 13.8 µM	> 25 µM	0.276 µM	> 25 µM
Cc1ccc(S(=O)(=O)OCC(=O)Nc2ccc(C(=O)O)c(O)c2)cc1	0.195 µM	7.08 µM	38.6 µM	172 µM	43.7 µM	145 µM	36.7 µM	200 µM	30.5 µM	96.7 µM	20.9 µM	61.4 µM	31.8 µM	94.5 µM	30.3 µM	106 µM	165 µM	332 µM	23.9 µM	121 µM
Cc1cc(I)cc(CNCCN2CCOCC2)c1O	90.2 µM	> 100 µM	> 100 µM	> 100 µM	> 100 µM	> 100 µM	> 100 µM	> 100 µM	36.9 µM	> 100 µM	> 100 µM	> 100 µM	> 100 µM	> 100 µM	> 100 µM	> 100 µM	24.3 µM	> 100 µM	> 100 µM	> 100 µM
O=C(CN1CCN(CCN2C(=O)c3cccc4cccc(c34)C2=O)CC1)Nc1ccc2ncsc2c1	1.38 µM	41.2 µM	3.61 µM	16.5 µM	3.19 µM	19.3 µM	5.65 µM	23.7 µM	5.82 µM	20.8 µM	6.61 µM	22.4 µM	11 µM	23.8 µM	3.8 µM	22.9 µM	9.79 µM	39.2 µM	4.65 µM	17.5 µM
O=C(COc1cccc(/C=C2\COc3ccccc3C2=O)c1)c1ccccc1	2.17 µM	6.66 µM	2.04 µM	4.5 µM	1.66 µM	3.83 µM	6.03 µM	18.6 µM	5.85 µM	19 µM	3 µM	10.2 µM	3.24 µM	10.7 µM	3.35 µM	11.2 µM	7.98 µM	20.6 µM	1.98 µM	4.27 µM
CCC(CC)c1cc(N[C@H]2CC[C@H](N)C2)n2nccc2n1	0.332 µM	> 100 µM	0.735 µM	> 100 µM	0.626 µM	> 100 µM	1.84 µM	5.87 µM	2.22 µM	> 100 µM	1.45 µM	3.46 µM	1.93 µM	5.24 µM	2.77 µM	> 100 µM	1.7 µM	5.16 µM	0.328 µM	> 100 µM
NS(=O)(=O)c1ccc(N=Nc2c(O)[nH]c3ccc(C(=O)NCCc4cnc[nH]4)cc23)cc1	> 25 µM	> 25 µM	> 25 µM	> 25 µM	> 25 µM	> 25 µM	> 25 µM	> 25 µM	> 25 µM	> 25 µM	> 25 µM	> 25 µM	> 25 µM	> 25 µM	> 25 µM	> 25 µM	> 25 µM	> 25 µM	> 25 µM	> 25 µM
O=C(Nc1ccn(C2CC(I)C(COC(c3ccccc3)(c3ccccc3)c3ccccc3)O2)c(=O)n1)c1ccccc1 (stereo unspecified)	–	2.15 µM	–	21.5 µM	–	21.5 µM	–	20.4 µM	–	15.5 µM	–	15.4 µM	–	16.2 µM	–	13.1 µM	–	21.5 µM	–	> 31.6 µM
NC(=O)c1cc(I)ccc1NC(=O)/C=C/c1ccccc1Cl	0.26 µM	0.952 µM	0.362 µM	14.5 µM	0.462 µM	> 39.6 µM	38.7 µM	> 100 µM	0.77 µM	20 µM	0.312 µM	48.7 µM	0.374 µM	21.8 µM	3 µM	> 38.8 µM	1.33 µM	> 69 µM	0.333 µM	25.7 µM
CCNC(=O)Oc1ccc(/C(=C(\C)c2ccc(Cl)cc2)c2ccc(OCCN(CC)CC)cc2)cc1	2.55 µM	10.7 µM	2.52 µM	6.44 µM	2.02 µM	4.23 µM	2.11 µM	4.36 µM	1.76 µM	3.42 µM	2.07 µM	4 µM	1.74 µM	3.52 µM	9.25 µM	29.1 µM	10.3 µM	23.6 µM	1.13 µM	10.9 µM
CON=C1C[C@]2(C[C@@H]3C[C@@H](C/C=C(\C)C[C@@H](C)/C=C/C=C4\CO[C@@H]5[C@H](O)C(C)=C[C@@H](C(=O)O3)[C@]45O)O2)O[C@H](/C(C)=C/C(C)C)[C@H]1C	3.91 µM	40.9 µM	11.1 µM	25.3 µM	11.8 µM	25.3 µM	16.9 µM	32.9 µM	14.2 µM	28.4 µM	14.4 µM	29.6 µM	17.5 µM	31.7 µM	16.3 µM	39.1 µM	6.99 µM	24 µM	15.9 µM	30 µM
